Laboratory results from US9546377B2, “Methods for the identification of genes involved in abiotic stress tolerance in plants” (priority 2011, dated 2017).

What was measured:
Arabidopsis [1] = experiment: Kill curves for individual osmotic stress agents; assay type: in vivo; conditions: kill curve experiments, each stress agent individually in the media
Excerpt: The standardization of growth conditions and generation of kill curves for various osmotic stress agents individually was done before the development of quad stress assay conditions. […] As there were four stress agents being used together, a quarter of each together in a solution would denote 100% stress or an osmotic pressure of 1.23 MPa. Therefore the following concentrations of each component were used in “100% quad media”.
Assay Conditions: Seeds were surface sterilized and stratified for 48 hrs. About 100 seeds were inoculated in one plate and cultured in a growth chamber programmed for 16 h of light at 22° C. temperature and 50% relative humidity. Germination was scored as the emergence of radicle. Assay Plan: A 6-day assay and an extended 10-day assay were done to test the seeds from the 48 transgenic Arabidopsis lines for osmotic stress tolerance. • Day 0—Surface sterilized seeds of different drought leads and stratify. • Day 2—Inoculated onto quad media. • Day 4—Counted for germination (48 hrs). • Day 5—Counted for germination (72 hrs)/Take pictures or Scan plates from 48 hrs to 96 hrs. • Day 6—Counted for germination (96 hrs). • For the extended 10-day assay, germination was scored from 48 hrs to 96 hrs. On day 7, 8, 9 and 10, the emerged seedlings were checked for greenness and four leaf stage. Preparation of Media • Germination medium (GM or 0% quad media) for 1 liter: […]

Arabidopsis [2] = experiment: Paraquat tolerance assay, dose effect of paraquat on growth; assay type: in vivo
Description: In light-exposed plants, paraquat accepts electrons from photosystem I and transfers them to molecular oxygen. In this manner, destructive reactive oxygen species are produced. A range of paraquat concentrations were tested in Arabidopsis. […] Compared to wild-type plants, mutant plants have larger size and less-bleached leaves under these conditions. A quantitative assay based on leaf area and color (similar to low N plate analysis) can be easily integrated into this screen.
The dose effect of paraquat on Arabidopsis growth was determined. […] Therefore this concentration was used for paraquat resistance assay. […] Tsu can serve as a positive control for this assay.
Seeds were surface sterilized and stratified for 96 hrs. 18 seeds for each tested line and Col-0 were inoculated in one plate, then cultured in a growth chamber programmed for 16 h of light at 22° C. temperature, 150 μE light intensity and 50% relative humidity. Growth phenotype was scored based on leaf size and color at 7-day-after inoculation.
Seeds were inoculated on a square paraquat plate. 18 seeds of test lines and 18 seeds of Col-0 were evenly put on the plate side by side. Plates were then cultured in the chambers set at 16 h of light at 22° C. temperature, 150 μE light intensity and 50% relative humidity.

Row | Structure (SMILES) | lethal concentration (Arabidopsis [1]) [mM] | effect on Col-0 plants (Arabidopsis [2]; 0.03 μM paraquat) | concentration that greatly inhibited Arabidopsis growth (Arabidopsis [2]; 7-day growth on plates) [µM] | concentration at which the effect on growth can be detected (Arabidopsis [2]; in vivo) [µM] | concentration giving dose-dependent growth inhibition and leaf bleach (Arabidopsis [2]; range of paraquat concentrations tested in Arabidopsis) [µM]
1 | OC[C@@H](O)[C@@H](O)[C@H](O)[C@H](O)CO [mannitol] | 500 | – | – | – | –
2 | OC[C@@H](O)[C@@H](O)[C@H](O)[C@@H](O)CO [sorbitol] | 500 | – | – | – | –
3 | C[n+]1ccc(-c2cc[n+](C)cc2)cc1 [paraquat] | – | plants died one-week-after germination | 0.03 | 0.01 | 0.01 to 0.1
4 | [Cl-].[Na+] [NaCl, sodium chloride] | 150 | – | – | – | –
